Here are results for 3 molecules from patent US6630473B1, “Anti-inflammatory agents and inhibitors against increase in ocular tension caused by irradiation with lasers, containing 1,4-dihydropyridine derivatives” (Senju Pharmaceutical Co., Ltd., priority 1999, dated 2003).

Test [1] concerns intraocular inflammation induced by photocoagulation of iris due to argon laser irradiation. Briefly: Anterior chamber protein concentration (laser flare cell meter) after argon laser irradiation of iris. The format is in vivo, Male Dutch colored house rabbits. As to conditions: for protein concentration after laser irradiation, Treated eye / protein concentration after laser irradiation, Non-treated eye: mean ± SE (n = 4); for protein concentration after laser irradiation: intravenous 500 μg/500 μl/kg at 30 minutes and immediately before laser irradiation, mean ± standard error (n = 4). From the text:
(§1) The effect of the inventive compound on intraocular inflammation and rise of intraocular pressure induced by photocoagulation of iris due to argon laser irradiation was examined. As regards intraocular inflammation, the anterior chamber protein concentration (photon/msec) was used as an index. Male Dutch colored house rabbits weighing about 2 kg purchased from Fukusaki Rabbit Breeding Cooperative were used for the test, after confirmation of absence of abnormality. The rabbits were raised at temperature of 23±3° C., humidity of 55±10% on a solid feed (the NOSAN GROUP: Labo R Stock, NIHON NOSAN) 100 g a day, allowing free access to tap water. […] The argon laser was irradiated in the middle of both eyes between limbus and the base of iris at 5 sites at the same intervals, under the conditions of size: 200 μm, irradiation time (duration): 0.5 sec, output (power): 0.35 W. To remove the effect of fibrin that occurs after laser irradiation, heparin (1000 U/kg) was intravenously administered. The increase in the anterior chamber protein concentration caused by ophthalmic inflammation was measured with a laser flare cell meter (Kowa Co., Ltd.) immediately before, 30 minutes after and 1 hour after laser irradiation. Nicardipine hydrochloride was intravenously administered at 30 minutes and immediately before laser irradiation by 500 μg/500 μl/kg. Heparin was administered 5 minutes after the first administration of nicardipine hydrochloride. Heparin was administered to the control group at 30 minutes before laser irradiation. Into one eye of the house rabbits was instilled 0.05% and 0.1% iganidipine hydrochloride and 0.1% nicardipine hydrochloride, and into each opposite eye was instilled physiological saline by 10 μl at 30 minutes before laser irradiation. The eye instilled with the test material was taken as the treated eye, and the opposite eye instilled with physiological saline was taken as the non-treated eye. In view of the influence of the test material on the opposite eye, the control eyes were prepared, wherein physiological saline was instilled into one eye, and the other eye was not treated, respectively taken as the control of the treated eye and the control of the non-treated eye. Heparin was intravenously administered immediately after instillation of the test material and physiological saline.

Test [2] deals with rise of intraocular pressure induced by photocoagulation of iris due to argon laser irradiation. The experiment in a line: Intraocular pressure (pneumatonograph) after argon laser irradiation of iris. The format is in vivo, Male Dutch colored house rabbits.
Source text: as §1, with “intraocular pressure of” for “increase in”, “both eyes” for “anterior chamber protein concentration caused by ophthalmic inflammation”, “measured” for “measured with a laser flare cell meter (Kowa Co., Ltd.)”, “before” for “before, 30 minutes after”, “0.25, 0.5, 1, 2, 3 and 4 hours” for “1 hour”

Test [3] relates to prostaglandin E2 (PGE2) induced inflammatory responses in the anterior uveal tissues and rise of intraocular pressure. As to conditions: systemic administration before administration of PGE2; cited from earlier work.
Test [4] has as its system experimental endophthalmitis induced by photocoagulation of iris by the argon laser. As to conditions: literature report; nicardipine by intravenous administration; cited from earlier work.

Several values for one entry are separate records, joined by “and”; a condition that tells them apart may be missing. Equal values may be shown once. Where a name gives a salt, the structure may show the parent alone.

Regarding `C=CCN1CCN(CC(C)(C)COC(=O)C2=C(C)NC(C)=C(C(=O)OC)C2c2cccc([N+](=O)[O-])c2)CC1.Cl.Cl` (stereo not drawn) [iganidipine hydrochloride, 3-(4-allyl-1-piperazinyl)-2,2-dimethylpropyl methyl 2,6-dimethyl-4-(m-nitrophenyl)-1,4-dihydropyridine-3,5-dicarboxylate dihydrochloride], the “protein concentration after laser irradiation, Treated eye” value in test [1] (instillation of 0.05% iganidipine hydrochloride 10 μl 30 minutes before laser, time 0 min) was 20.55 ± 5.02 /msec; in test [1] (instillation of 0.05% iganidipine hydrochloride 10 μl 30 minutes before laser, time 30 min, dihydrochloride) it was 73.8 /msec and 73.75 ± 8.67 /msec; in test [1] (instillation of 0.05% iganidipine hydrochloride 10 μl 30 minutes before laser, time 60 min) it was 284.10 ± 17.03 /msec; in test [1] (instillation of 0.1% iganidipine hydrochloride 10 μl 30 minutes before laser, time 0 min), 19.18 ± 2.37 /msec; in test [1] (instillation of 0.1% iganidipine hydrochloride 10 μl 30 minutes before laser, time 30 min, dihydrochloride), 84.7 /msec and 84.70 ± 29.66 /msec; in test [1] (instillation of 0.1% iganidipine hydrochloride 10 μl 30 minutes before laser, time 60 min) it was 227.18 ± 10.03 /msec. Further, the “protein concentration after laser irradiation, Non-treated eye” value is 11.73 ± 2.97 /msec in test [1] (opposite eye (physiological saline) from eye instilled with 0.05% iganidipine hydrochloride, time 0 min); 68.53 ± 14.40 /msec in test [1] (opposite eye (physiological saline) from eye instilled with 0.05% iganidipine hydrochloride, time 30 min); 313.13 ± 27.06 /msec in test [1] (opposite eye (physiological saline) from eye instilled with 0.05% iganidipine hydrochloride, time 60 min); 16.03 ± 2.97 /msec in test [1] (opposite eye (physiological saline) from eye instilled with 0.1% iganidipine hydrochloride, time 0 min); 117.33 ± 31.50 /msec in test [1] (opposite eye (physiological saline) from eye instilled with 0.1% iganidipine hydrochloride, time 30 min); 244.45 ± 39.46 /msec in test [1] (opposite eye (physiological saline) from eye instilled with 0.1% iganidipine hydrochloride, time 60 min). Further, the “time to restore to the original intraocular pressure” value was 90 min in test [2] (eye instilled with 0.05%) and 120 min in test [2] (eye instilled with 0.1%). Moreover, the “rise of intraocular pressure from the initial value” is listed as 6 mmHg in test [2] (eye instilled with 0.05%, 30 minutes from laser irradiation (FIG. 3)) and 7.5 mmHg in test [2] (eye instilled with 0.1%, 30 minutes from laser irradiation (FIG. 2)). Besides, the “intraocular pressure of opposite (non-treated) eye compared with control group” value in test [2] (eye instilled with physiological saline opposite to the test-material eye, 3 hours after irradiation) is “more significant decrease”.

On to `COC(=O)C1=C(C)NC(C)=C(C(=O)OCCN(C)Cc2ccccc2)C1c1cccc([N+](=O)[O-])c1` (stereo not drawn) [nicardipine hydrochloride], for which the “anterior chamber protein concentration compared with control group” value in test [1] (eye instilled with 0.1%, 30 minutes after laser irradiation) was “without difference from the control group”. Further, the “protein concentration after laser irradiation, Treated eye” value in test [1] (instillation of 0.1% nicardipine hydrochloride 10 μl 30 minutes before laser, time 0 min) was 20.55 ± 5.02 /msec; in test [1] (instillation of 0.1% nicardipine hydrochloride 10 μl 30 minutes before laser, time 30 min, hydrochloride), 184.1 /msec and 184.05 ± 35.1 /msec; in test [1] (instillation of 0.1% nicardipine hydrochloride 10 μl 30 minutes before laser, time 60 min) it was 337.23 ± 46.4 /msec. Besides, the “protein concentration after laser irradiation” value is 15.53 ± 0.14 /msec in test [1] (time 0 min); 58.1 /msec and 58.08 ± 18.14 /msec in test [1] (time 30 min, hydrochloride); 30.85 ± 2.58 /msec in test [1] (time 60 min). In addition, the “protein concentration after laser irradiation, Non-treated eye” value is 11.73 ± 2.97 /msec in test [1] (opposite eye (physiological saline) from eye instilled with 0.1% nicardipine hydrochloride, time 0 min); 118.93 ± 21.21 /msec in test [1] (opposite eye (physiological saline) from eye instilled with 0.1% nicardipine hydrochloride, time 30 min); 349.85 ± 23.02 /msec in test [1] (opposite eye (physiological saline) from eye instilled with 0.1% nicardipine hydrochloride, time 60 min). The “effect on the rise of intraocular pressure after laser irradiation” value in test [2] (eye instilled with 0.1% (FIG. 4)) is recorded as “significant inhibition of the rise of intraocular pressure”. For the same molecule, the intraocular pressure was 24.2 mmHg in test [2] (intravenous administration group, 30 minutes after the irradiation (FIG. 1)); 20.8 mmHg in test [2] (intravenous administration group, 1 hour after the irradiation (FIG. 1)); 30.1 mmHg in test [2] (intravenous administration group, immediately before laser irradiation (FIG. 1)). Besides, in test [2] (intravenous administration group, after the irradiation), the “time until which the intraocular pressure effect was sustained” value was 4 h. Further, the “decrease of intraocular pressure” value in test [2] (intravenous administration group, at 1 hour after the irradiation versus immediately before laser irradiation) was 9.3 mmHg. In addition, the “effect on PGE2-induced inflammatory responses and temporary rise of intraocular pressure” value in test [3] was “inhibits these responses in a dose-dependent manner”. The “effect on experimental endophthalmitis induced by argon laser photocoagulation of iris” value in test [4] is on record as “inhibited experimental endophthalmitis”.

As for `COC(=O)C1=C(C#N)NC(C)=C(C(=O)OC(C)C)C1c1cccc([N+](=O)[O-])c1` (stereo not drawn) [nilvadipine], the “effect on PGE2-induced inflammatory responses and temporary rise of intraocular pressure” value in test [3] is “inhibits these responses in a dose-dependent manner”.
